In article PMC10179080, “In Vivo and In Vitro Characterization of Close Analogs of Compound KA-11, a New Antiseizure Drug Candidate” (International Journal of Molecular Sciences, 2023):
Where two headings read alike, the source gives them in different places.

Tests used:
[1] = tested on: tonic–clonic seizures in mice; assay: Maximal electroshock seizure (MES) test; assay type: in vivo
Procedure: (§1) The experiments were conducted on adult male albino Swiss mice weighing 22–26 g. The animals were kept in colony cages under standardized laboratory conditions: natural light–dark cycle 12/12 h, temperature 20–24 °C, air humidity 45–65% and free access to tap water and food (chow pellets). After 7 days of adaptation to laboratory conditions, the animals were randomly assigned to experimental groups consisting of 8 mice. The experimental procedures described herein were approved by the Local Ethics Committee in Lublin, Poland (approval numbers: 71/2020 and 13/2021), and were conducted in accordance with EU Directive 2010/63/EU for animal experiments. All efforts were made to minimize animal suffering and to use only the number of animals necessary to produce reliable scientific data according to the 3Rs rule.
(§2) All substances (except PTZ and tetracaine hydrochloride dissolved in water for injections) were suspended in a 1% solution of Tween 80 (Sigma-Aldrich, Saint Louis, MO, USA) in water for injections (Baxter, Warszawa, Poland) or 0.9% NaCl. All drugs were injected intraperitoneally (i.p.) 30 min before all seizure models with 1 mL syringes as a single injection, in a volume of 10 mL/kg. The pretreatment time (30 min) before testing for KA-228 and KA-232 was chosen based on the time to peak of maximum anticonvulsant activity of KA-11 from our previous studies.
The tonic–clonic seizures in mice were evoked by an electric stimulus (an alternating current 25 mA, 50 Hz, maximum output voltage 500 V, 0.2 s) generated by a rodent shocker (Hugo Sachs Elektronik, Freiburg, Germany) and delivered via ear-clip electrodes. […] This experimental procedure has been described in detail in our previous studies.
(§3) The ED50 or TD50 values for tested substances in the acute animal models of seizures were calculated using the computer log-probit analysis. Subsequently, the ED50 and TD50 values (±SEM) were statistically analyzed using one-way analysis of variance (ANOVA) followed by the post hoc Dunnett’s test for multiple comparisons. Differences among values were considered statistically significant if p < 0.05. GraphPad Prism version 8 for Windows (GraphPad Software, San Diego, CA, USA) was used as a statistical software program. The results obtained from the acute ivPTZ test and grip strength test were evaluated by a Student’s t test. Fisher’s exact probability test was used to analyze protection from tonic forelimb and hindlimb extension in the ivPTZ test.

[2] = tested on: 6-Hz-induced psychomotor seizures in mice; assay: 6 Hz (32 mA) seizure model; assay type: in vivo
Procedure: as §1, §2
The 6-Hz-induced psychomotor seizures in mice were evoked by current (6 Hz, 0.2 ms rectangular pulse width, 32 mA, 3 s duration) generated by an S48 Square Pulse Stimulator and CCU1 Constant Current Unit (Grass Technologies, West Warwick, RI, USA). The animals were administered with increasing doses of KA-228 and KA-232, and the anticonvulsant activity of each drug was evaluated as the ED50. This experimental procedure has been described in detail in our previous studies.
as §3

[3] = tested on: PTZ-induced clonic seizures in mice; assay: scPTZ-induced convulsions; assay type: in vivo; conditions: i.p.
Procedure: as §1, §2
The PTZ-induced clonic seizures in mice were determined after sc administration of PTZ at a dose of 100 mg/kg. The animals were administered with increasing doses of KA-228 and KA-232, and the anticonvulsant activity of each drug was evaluated as the ED50 value. This experimental procedure has been described in detail in our previous studies.
as §3

[4] = tested on: seizure susceptibility in mice; assay: Timed ivPTZ seizure threshold test; assay type: in vivo; conditions: 50 mg/kg i.p., 30 min before ivPTZ
Procedure: as §1
The timed ivPTZ seizure threshold test was carried out according to the method described by Socała et al.. KA-228 and KA-232 were suspended in a 1% solution of Tween 80 and administered i.p. 30 min before the test. In the experiment with KA-232, two separate control groups were used because the effects of KA-232 at a dose of 50 and 100 mg/kg were determined on different days.
as §3
Figure 7 Effects of KA-11, KA-228 and KA-232 on the threshold for the first myoclonic twitch (A), generalized clonus (B) and forelimb tonus (C) in the ivPTZ test in mice. KA-228 and KA-232 were administered i.p., 30 min before seizure induction. Control animals received vehicle. Data are presented as means ± SD (mg/kg PTZ; n = 9–14 animals; the n value varies between groups because some animals were excluded from the study due to unsuccessful catheterization of the vein). The statistical significance for KA-228 and KA-232 was evaluated by a Student’s t test. Data for KA-11 were used from Socała et al. and re-analyzed using one-way ANOVA followed by Dunnett’s post hoc test. * p < 0.05, ** p < 0.01, *** p < 0.001, **** p < 0.0001 vs. the vehicle-treated group (GraphPad Prism 8).

Chimney test = conditions: male, albino Swiss, mouse, in vivo, ip, mice
Procedure: as §1
The chimney test of Boissier et al. was used to quantify the acute adverse-effect potential of KA-228 and KA-232 on motor performance in mice. […]
The ED50 or TD50 values for tested substances in the acute animal models of seizures were calculated using the computer log-probit analysis. Subsequently, the ED50 and TD50 values (±SEM) were statistically analyzed using one-way analysis of variance (ANOVA) followed by the post hoc Dunnett’s test for multiple comparisons. […] The results obtained from the acute ivPTZ test and grip strength test were evaluated by a Student’s t test. […]

[5] = tested on: neuromuscular strength in mice; assay: Grip strength test; assay type: in vivo; conditions: 50 mg/kg i.p., 30 min before test
Procedure: The experiments were conducted on adult male albino Swiss mice weighing 22–26 g. The animals were kept in colony cages under standardized laboratory conditions: natural light–dark cycle 12/12 h, temperature 20–24 °C, air humidity 45–65% and free access to tap water and food (chow pellets). After 7 days of adaptation to laboratory conditions, the animals were randomly assigned to experimental groups consisting of 8 mice. The experimental procedures described herein were approved by the Local Ethics Committee in Lublin, Poland (approval numbers: 71/2020 and 13/2021), and were conducted in accordance with EU Directive 2010/63/EU for animal experiments. All efforts were made to minimize animal suffering and to use only the number of animals necessary to produce reliable scientific data according to the 3Rs rule. The grip strength test was carried out according to the methodology described by Socała et al.. Neuromuscular strength was measured just before the ivPTZ seizure threshold test to limit the number of animals used. The ED50 or TD50 values for tested substances in the acute animal models of seizures were calculated using the computer log-probit analysis. Subsequently, the ED50 and TD50 values (±SEM) were statistically analyzed using one-way analysis of variance (ANOVA) followed by the post hoc Dunnett’s test for multiple comparisons. Differences among values were considered statistically significant if p < 0.05. GraphPad Prism version 8 for Windows (GraphPad Software, San Diego, CA, USA) was used as a statistical software program. The results obtained from the acute ivPTZ test and grip strength test were evaluated by a Student’s t test. Fisher’s exact probability test was used to analyze protection from tonic forelimb and hindlimb extension in the ivPTZ test. Figure 8 Effects of KA-228 and KA-232 on neuromuscular strength in mice. KA-228 and KA-232 were administered i.p., 30 min before the test. Control animals received vehicle. […] The statistical significance was evaluated using the Student’s t test: * p < 0.05 vs. the vehicle-treated group (GraphPad Prism 8).

Na^+ channel (site 2) = assay: Radioligand binding, Na+ channel (site 2); set-up: species or system rat
Procedure: (§4) Dysfunction of both sodium and calcium ion channels is known to be one of the crucial reasons behind the pathogenesis of seizures. Consequently, these ion channels are molecular targets for several clinically important ASDs such as lacosamide, lamotrigine, carbamazepine, oxcarbazepine and compounds currently under preclinical and clinical studies. Thus, for KA-228 and KA-232, we tested herein their binding profile toward the aforementioned ion channels at concentrations of 10 and 100 µM (Table 3). […] Apart from in vitro studies focused on explaining the mechanism of action, KA-232 was additionally tested for its interaction with the potassium channel (hERG) which is recognized as one of the most important ‘off-targets’ responsible for harmful arrhythmogenic activity. Thus, the interaction of potential drug candidates with hERG must be excluded at an early stage of development.
(§5) Binding studies were carried out commercially in Eurofins Laboratories (Poitiers, France or New Taipei City, Taiwan).

[6] = tested on: Calcium Cav1.2 channels (dihydropyridine site, antagonist radioligand); assay: Radioligand binding, Cav1.2 dihydropyridine site; set-up: species or system rat; conditions: 10 µM
Procedure: as §4, §5

[7] = tested on: tonic–clonic seizures in mice; conditions: i.p.; cited from earlier work
[8] = tested on: 6-Hz-induced psychomotor seizures in mice; conditions: i.p.; cited from earlier work
[9] = tested on: PTZ-induced clonic seizures in mice; conditions: i.p.; cited from earlier work
hepatoma HepG2 = assay: Hepatotoxicity, HepG2 cell viability; assay type: cell-based, human; conditions: 100× lower concentration than 100 µM
Text: The assays and protocols used for evaluating the KA-232 ADME-Tox parameters were similar to those described previously for compound KA-11 [6].
Figure 9 The effect of KA-232 and the reference drug ketoconazole (KE) on CYP3A4 activity (A). The effect of KA-232 and the reference drug quinidine (QD) on CYP2D6 activity (B). The effect of KA-232 and the reference cytostatic drug doxorubicin (DX) on the HepG2 cell line (C) and the SH-SY5Y cell line (D) viability. Statistical significance (* p < 0.05, **** p < 0.0001) was analyzed by Graph Pad Prism 8 software using one-way ANOVA and Bonferroni’s Multiple Comparison Post Test.

CC(C(=O)N1CCN(c2cccc(C(F)(F)F)c2)CC1)N1CCCC1=O (centres unmarked) [KA-228, 1-(1-oxo-1-(4-(3-(trifluoromethyl)phenyl)piperazin-1-yl)propan-2-yl)pyrrolidin-2-one]
ED50 ([1]; Mus musculus, ip, 30 min before test, read-out: ED50 MES ± SD): 92.5 ± 16 mg/kg | TI (TD50/ED50), MES ([1]; i.p.): 1.42 | ED50 ([2]; Mus musculus, ip, 30 min before test, read-out: ED50 6 Hz ± SD): 61.8 mg/kg | TI (TD50/ED50), 6 Hz ([2]; i.p.): 1.72 | ED50 6 Hz ± SD ([2]; i.p., 30 min before test): 76.4 ± 40.76 mg/kg | ED50 ([3]; Mus musculus, scPTZ 100 mg/kg, 30 min before test, read-out: ED50 PTZ ± SD): 95.4 ± 39.8 mg/kg | TI (TD50/ED50), PTZ ([3]; scPTZ): 1.38 | effect on threshold for forelimb tonus [4]: significantly raised | effect on threshold for generalized clonus [4]: did not cause any significant changes | effect on threshold for the first myoclonic twitch [4]: did not cause any significant changes | TD50 at 30 min (Chimney test): 131 ± 36.2 mg/kg | effect on neuromuscular strength (grip strength) [5]: did not produce any significant effects | % Inhibition of Control Specific Binding (Na^+ channel (site 2); 10 µM): −2.9% | % Inhibition of Control Specific Binding (Na^+ channel (site 2); 100 µM): 15.5% | % Inhibition of Control Specific Binding [6]: 8.7% | melting point: 87.1 to 88.4 °C

CCCC(CCC)C(=O)O [VPA, valproic acid, reference compound]
ED50 MES ± SD [7]: 355.2 ± 108.1 mg/kg | TI (TD50/ED50), MES [7]: 1.21 | ED50 6 Hz ± SD [8]: 110.5 ± 42.8 mg/kg | TI (TD50/ED50), 6 Hz [8]: 3.90 | ED50 PTZ ± SD [9]: 176.2 ± 81.8 mg/kg | TI (TD50/ED50), PTZ [9]: 2.44

COc1cccc2c1C(=O)c1c(O)c3c(c(O)c1C2=O)C[C@@](O)(C(=O)CO)C[C@@H]3O[C@H]1C[C@H](N)[C@H](O)[C@H](C)O1 [doxorubicin, reference compound]
HepG2 cell viability (hepatoma HepG2): 21 % of control
